Where “and” joins values, the source holds several entries; their conditions need not be identical. Equal entries are not always repeated. Where two headings read alike, the source gives them in different places.
What was measured:
HIV-1IIIB [1] = experiment: Combined antiviral activity assay (p24 ELISA, CompuSyn); assay type: cell-based
[2] = Cytotoxicity MTT assay in MT4 cells; assay type: cell-based; conditions: human
HIV-1_4755-5 [3] = experiment: microbe, parasite or virus in culture; conditions: Human immunodeficiency virus 1, C8166
NL4-3IN-R263K = experiment: microbe, parasite or virus in culture; assay type: cell-based; conditions: Human immunodeficiency virus 1
[4] = tested on: pNL4-3gp41(36G) V38A, N42T; conditions: C8166, p24
HIV-1A17 [5] = experiment: microbe, parasite or virus in culture; conditions: Human immunodeficiency virus 1, C8166
[6] = Cytotoxicity MTT assay in C8166 cells; assay type: cell-based; conditions: human
HIV-1IIIB [7] = experiment: microbe, parasite or virus in culture; assay type: cell-based; conditions: Human immunodeficiency virus 1, MT4, MTT
HIV-1KIZ011 (CRF07_BC) [8] = experiment: microbe, parasite or virus in culture; conditions: Human immunodeficiency virus 1, PBMC
[9] = Cytotoxicity MTT assay in PBMCs; assay type: cell-based; conditions: human, peripheral blood mononuclear cells (PBMCs), PBMC
HIV-1DRACC017 = experiment: microbe, parasite or virus in culture; assay type: cell-based; conditions: Human immunodeficiency virus 1; HIV-1DRACC017, p24
HIV-1TC-1 (CRF01_AE) [10] = experiment: microbe, parasite or virus in culture; conditions: Human immunodeficiency virus 1, PBMC
HIV-1IIIB [11] = experiment: HIV-1IIIB-induced cytopathic effect (syncytia counting) in C8166 cells; conditions: for EC50: Human immunodeficiency virus 1, C8166
HIV-1IIIB [12] = experiment: microbe, parasite or virus in culture; conditions: Human immunodeficiency virus 1, C8166, HIV-1IIIB
HIV-1IIIB [13] = experiment: qPCR determination of Late-RT, 2-LTR and Alu-LTR in infected C8166 cells; assay type: cell-based; conditions: for Late-RT level versus positive control (PC) group: C8166, HIV-1IIIB MOI 0.5, 100 nM ACC017, 4-8 h; for 2-LTR level (nuclear entry): C8166, HIV-1IIIB MOI 0.5, 100 nM ACC017, 8, 12, 24 h; for Alu-LTR level (integrated provirus): C8166, HIV-1IIIB MOI 0.5, 100 nM ACC017, 24 h, nested PCR
HIV-1WAN (CRF01_AE) [14] = experiment: microbe, parasite or virus in culture; conditions: Human immunodeficiency virus 1, PBMC
NL4-3 = experiment: microbe, parasite or virus in culture; assay type: cell-based; conditions: Human immunodeficiency virus 1, NL43; NL4-3, p24
HIV-1_4755-5 [15] = conditions: HIV-1_4755-5, C8166, p24
[16] = tested on: clinical isolated strains; experiment: microbe, parasite or virus in culture; assay type: cell-based; conditions: Human immunodeficiency virus 1, read-out: EC50 range
HIV-1A17 [17] = conditions: HIV-1A17, C8166, p24
HIV-1WAN (CRF01_AE) [18] = conditions: PBMC, p24
[19] = design: method as in CTR20240167; conditions: healthy adults, single-dose administration; ref CTR20240167; cited from earlier work
drug-resistant strains = experiment: microbe, parasite or virus in culture; assay type: cell-based; conditions: Human immunodeficiency virus 1; panel of drug-resistant strains; read-out: EC50 range
[20] = biological target: HIV-1 mutant N155H integrase (Human immunodeficiency virus type 1 group M subtype B, UniProt P04585, N1302H); experiment: biochemical; conditions: HIV-1N155H integrase, mean n = 4
HIV-1TC-1 (CRF01_AE) [21] = conditions: HIV-1TC-1, PBMC, p24
HIV-1IIIB [22] = tested on: HIV-1IIIB
HIV-1KIZ011 (CRF07_BC) [23] = conditions: HIV-1KIZ011, PBMC, p24
[24] = p24 (Table 4, resistance study)

C[C@@H]1CCO[C@H]2Cn3cc(C(=O)NCc4ccc(F)cc4F)c(=O)c(O)c3C(=O)N12 [DTG, Dolutegravir]
DRI Value ED75 (HIV-1IIIB [1]; combination ACC017 + DTG): 1.40
DRI Value ED90 (HIV-1IIIB [1]; combination ACC017 + DTG): 1.40
DRI Value ED95 (HIV-1IIIB [1]; combination ACC017 + DTG): 1.60
DRI Value ED75 (HIV-1IIIB [1]; combination DTG + 3TC): 3.00
DRI Value ED90 (HIV-1IIIB [1]; combination DTG + 3TC): 4.01
DRI Value ED95 (HIV-1IIIB [1]; combination DTG + 3TC): 4.98
DRI Value ED75 (HIV-1IIIB [1]; combination DTG + ACC007): 3.00
DRI Value ED90 (HIV-1IIIB [1]; combination DTG + ACC007): 4.13
DRI Value ED95 (HIV-1IIIB [1]; combination DTG + ACC007): 5.21
DRI Value ED75 (HIV-1IIIB [1]; combination DTG + FTC + TAF): 3.25
DRI Value ED90 (HIV-1IIIB [1]; combination DTG + FTC + TAF): 4.37
DRI Value ED95 (HIV-1IIIB [1]; combination DTG + FTC + TAF): 5.41
CC50 at 3 d [2]: 24910 ± 10 nM
EC50 (HIV-1_4755-5 [3]): 9.96 ± 2.78 nM
EC50 (NL4-3IN-R263K): 32.2 ± 3.74 nM
EC50 [4]: 1.95 ± 0.12 nM
EC50 (HIV-1A17 [5]): 4.78 ± 5.13 nM
CC50 at 3 d [6]: 20340 ± 70 nM
EC50 (HIV-1IIIB [7]): 0.05144 ± 0.00014 nM
EC50 (HIV-1KIZ011 (CRF07_BC) [8]): 0.28 ± 0.03 nM
CC50 at 7 d [9]: 14600 nM
EC50 (HIV-1DRACC017): > 5000 nM
EC50 (HIV-1TC-1 (CRF01_AE) [10]): 0.31 ± 0.18 nM
EC50 (HIV-1IIIB [11]): 0.73 ± 0.02 nM
EC50 (HIV-1IIIB [12]; C8166, p24 (Table 1)): 0.64 ± 0.07 nM
EC50 (HIV-1IIIB [12]; C8166, p24, 20% human serum): 33.6 ± 5.9 nM
EC50 (HIV-1IIIB [12]; [24]): 1.18 ± 0.15 nM
Late-RT level versus positive control (PC) group (HIV-1IIIB [13]): no significant difference compared with the PC group
2-LTR level (nuclear entry) (HIV-1IIIB [13]): unable to block the nuclear entry process
Alu-LTR level (integrated provirus) (HIV-1IIIB [13]): significantly reduced
EC50 (HIV-1WAN (CRF01_AE) [14]): 8.23 ± 0.2 nM
EC50 (NL4-3): 2.41 ± 0.43 nM

C[C@H]1N2C(=O)c3c(O)c(=O)c(C(=O)NCc4ccc(F)cc4F)cn3C[C@@H]2OCC12CC2 [ACC017]
DRI Value ED75 (HIV-1IIIB [1]; combination ACC017 + 3TC): 5.25
DRI Value ED90 (HIV-1IIIB [1]; combination ACC017 + 3TC): 9.07
DRI Value ED95 (HIV-1IIIB [1]; combination ACC017 + 3TC): 13.15
DRI Value ED75 (HIV-1IIIB [1]; combination ACC017 + ACC007): 4.07
DRI Value ED90 (HIV-1IIIB [1]; combination ACC017 + ACC007): 6.48
DRI Value ED95 (HIV-1IIIB [1]; combination ACC017 + ACC007): 8.97
DRI Value ED75 (HIV-1IIIB [1]; combination ACC017 + ACC017): 1.77 and 3.46
DRI Value ED90 (HIV-1IIIB [1]; combination ACC017 + ACC017): 2.06 and 2.77
DRI Value ED95 (HIV-1IIIB [1]; combination ACC017 + ACC017): 2.32 and 2.42
DRI Value ED75 (HIV-1IIIB [1]; combination ACC017 + DTG): 2.89
DRI Value ED90 (HIV-1IIIB [1]; combination ACC017 + DTG): 2.45
DRI Value ED95 (HIV-1IIIB [1]; combination ACC017 + DTG): 2.27
DRI Value ED75 (HIV-1IIIB [1]; combination ACC017 + FTC + TAF): 4.62
DRI Value ED90 (HIV-1IIIB [1]; combination ACC017 + FTC + TAF): 6.79
DRI Value ED95 (HIV-1IIIB [1]; combination ACC017 + FTC + TAF): 9.05
CC50 at 3 d [2]: 24800 ± 80 nM
EC50 (HIV-1_4755-5 [3]): 9.12 ± 2.31 nM
EC50 (NL4-3IN-R263K; read-out: EC50): 28.1 ± 4.22 nM
EC50 [4]: 0.34 ± 0.09 nM
SI (CC50/EC50) [4]: 59,911.76
EC50 (HIV-1A17 [5]): 8.51 ± 0.25 nM
CC50 at 3 d [6]: 20370 ± 100 nM
EC50 (HIV-1IIIB [7]): 0.05147 ± 2e-05 nM
SI (CC50/EC50) (HIV-1_4755-5 [15]): 2233.55
EC50 (HIV-1KIZ011 (CRF07_BC) [8]): 0.33 ± 0.06 nM
EC50 [16]: 0.11 to 1.78 nM
CC50 at 7 d [9]: 15200 nM
SI (CC50/EC50) (HIV-1A17 [17]): 2393.65
EC50 (HIV-1DRACC017): > 5000 nM
EC50 (HIV-1TC-1 (CRF01_AE) [10]): 0.11 ± 0.06 nM
SI (CC50/EC50) (HIV-1IIIB [11]; HIV-1IIIB, C8166, syncytia): 34,525.42
EC50 (HIV-1IIIB [11]): 0.59 ± 0.09 nM
SI (CC50/EC50) (HIV-1WAN (CRF01_AE) [18]): 8561.80
Safety and tolerability [19]: favorable safety and tolerability profile
EC50 (drug-resistant strains): 0.34 to 9.12 nM
IC50 [20]: 9.91 nM
SI (CC50/EC50) (HIV-1TC-1 (CRF01_AE) [21]): 138,545.45
EC50 (HIV-1IIIB [12]; C8166, p24 (Table 1)): 0.59 ± 0.09 nM
EC50 (HIV-1IIIB [12]; C8166, p24, 20% human serum): 8.28 ± 2.02 nM
EC50 (HIV-1IIIB [12]; [24]): 1.25 ± 0.48 nM
SI (CC50/EC50) (HIV-1IIIB [22]; C8166, p24): 34,525.42
Fold increase of EC50 in the presence of 20% human serum (HIV-1IIIB [22]; C8166, p24, with vs without 20% human serum): 14.03 fold
SI (CC50/EC50) (HIV-1KIZ011 (CRF07_BC) [23]): 46,181.82
Late-RT level versus positive control (PC) group (HIV-1IIIB [13]): no significant difference compared with the PC group
2-LTR level (nuclear entry) (HIV-1IIIB [13]): unable to block the nuclear entry process
Alu-LTR level (integrated provirus) (HIV-1IIIB [13]): significantly reduced
EC50 (HIV-1WAN (CRF01_AE) [14]): 1.78 ± 0.29 nM
EC50 (NL4-3): 1.7 ± 0.47 nM

Nc1nc(=O)n([C@@H]2CS[C@H](CO)O2)cc1F [FTC, Emtricitabine]
DRI Value ED75 (HIV-1IIIB [1]; combination ACC017 + FTC + TAF): 7.82
DRI Value ED90 (HIV-1IIIB [1]; combination ACC017 + FTC + TAF): 12.57
DRI Value ED95 (HIV-1IIIB [1]; combination ACC017 + FTC + TAF): 17.41
DRI Value ED75 (HIV-1IIIB [1]; combination DTG + FTC + TAF): 7.15
DRI Value ED90 (HIV-1IIIB [1]; combination DTG + FTC + TAF): 12.20
DRI Value ED95 (HIV-1IIIB [1]; combination DTG + FTC + TAF): 17.77
